Reference: the NIST ThermoML archive (doi:10.1021/je400055v)

Assay: xn = mol fraction of the nth substance listed
Conditions: Liquid, Vibrating tube method

CCCCCCCCCCC [undecane] + CCCCCCC
Conditions | mass density [kg/m3]
313.12 K, 2001 kPa, x2 = 0.5063 | 703.7
313.12 K, 3000 kPa, x2 = 0.5063 | 704.6
313.12 K, 4000 kPa, x2 = 0.5063 | 705.6
313.12 K, 5000 kPa, x2 = 0.5063 | 706.5
313.12 K, 6000 kPa, x2 = 0.5063 | 707.4
313.12 K, 7000 kPa, x2 = 0.5063 | 708.2
313.12 K, 8001 kPa, x2 = 0.5063 | 709.1
313.12 K, 9000 kPa, x2 = 0.5063 | 709.9
313.12 K, 10000 kPa, x2 = 0.5063 | 710.8
313.12 K, 11000 kPa, x2 = 0.5063 | 711.6
313.12 K, 12000 kPa, x2 = 0.5063 | 712.4
313.12 K, 13000 kPa, x2 = 0.5063 | 713.2
313.12 K, 14000 kPa, x2 = 0.5063 | 714
313.12 K, 15000 kPa, x2 = 0.5063 | 714.8
313.12 K, 16000 kPa, x2 = 0.5063 | 715.6
313.12 K, 17001 kPa, x2 = 0.5063 | 716.3
313.12 K, 18000 kPa, x2 = 0.5063 | 717.1
313.12 K, 19000 kPa, x2 = 0.5063 | 717.8
313.12 K, 20000 kPa, x2 = 0.5063 | 718.5
313.12 K, 21001 kPa, x2 = 0.5063 | 719.2
313.12 K, 22050 kPa, x2 = 0.5063 | 720
313.12 K, 23000 kPa, x2 = 0.5063 | 720.6
313.12 K, 24000 kPa, x2 = 0.5063 | 721.3
313.12 K, 25000 kPa, x2 = 0.5063 | 722
313.14 K, 1001 kPa, x2 = 0.9511 | 671.7
313.14 K, 2000 kPa, x2 = 0.9511 | 672.8
313.14 K, 3000 kPa, x2 = 0.9511 | 673.9
313.14 K, 4000 kPa, x2 = 0.9511 | 674.9
313.14 K, 5000 kPa, x2 = 0.9511 | 676
313.14 K, 6000 kPa, x2 = 0.9511 | 677
313.14 K, 7000 kPa, x2 = 0.9511 | 678
313.14 K, 8000 kPa, x2 = 0.9511 | 679
313.14 K, 9000 kPa, x2 = 0.9511 | 680
313.14 K, 10000 kPa, x2 = 0.9511 | 680.9
313.14 K, 11000 kPa, x2 = 0.9511 | 681.8
313.14 K, 12000 kPa, x2 = 0.9511 | 682.7
313.14 K, 13000 kPa, x2 = 0.9511 | 683.6
313.14 K, 14001 kPa, x2 = 0.9511 | 684.5
313.14 K, 15001 kPa, x2 = 0.9511 | 685.4
313.14 K, 16000 kPa, x2 = 0.9511 | 686.3
313.14 K, 17001 kPa, x2 = 0.9511 | 687.1
313.14 K, 18001 kPa, x2 = 0.9511 | 687.9
313.14 K, 19000 kPa, x2 = 0.9511 | 688.7
313.14 K, 20000 kPa, x2 = 0.9511 | 689.5
313.14 K, 21001 kPa, x2 = 0.9511 | 690.3
313.14 K, 22000 kPa, x2 = 0.9511 | 691.1
313.14 K, 23001 kPa, x2 = 0.9511 | 691.9
313.14 K, 24000 kPa, x2 = 0.9511 | 692.6
313.14 K, 25000 kPa, x2 = 0.9511 | 693.3
313.15 K, 1000 kPa, x2 = 0.7482 | 687.4
313.15 K, 1001 kPa, x2 = 0.05 | 724.3
313.15 K, 2000 kPa, x2 = 0.7482 | 688.4
313.15 K, 2001 kPa, x2 = 0.05 | 725.1
313.15 K, 3000 kPa, x2 = 0.05 | 726
313.15 K, 3000 kPa, x2 = 0.7482 | 689.4
313.15 K, 4000 kPa, x2 = 0.05 | 726.8
313.15 K, 4000 kPa, x2 = 0.7482 | 690.4
313.15 K, 5000 kPa, x2 = 0.05 | 727.6
313.15 K, 5000 kPa, x2 = 0.7482 | 691.3
313.15 K, 6000 kPa, x2 = 0.05 | 728.4
313.15 K, 6000 kPa, x2 = 0.7482 | 692.3
313.15 K, 7000 kPa, x2 = 0.05 | 729.2
313.15 K, 7000 kPa, x2 = 0.7482 | 693.2
313.15 K, 8000 kPa, x2 = 0.7482 | 694.1
313.15 K, 8001 kPa, x2 = 0.05 | 730
313.15 K, 9000 kPa, x2 = 0.05 | 730.8
313.15 K, 9000 kPa, x2 = 0.7482 | 695
313.15 K, 10000 kPa, x2 = 0.05 | 731.6
313.15 K, 10000 kPa, x2 = 0.7482 | 695.9
313.15 K, 11000 kPa, x2 = 0.05 | 732.3
313.15 K, 11000 kPa, x2 = 0.7482 | 696.8
313.15 K, 12000 kPa, x2 = 0.05 | 733.1
313.15 K, 12000 kPa, x2 = 0.7482 | 697.6
313.15 K, 13000 kPa, x2 = 0.05 | 733.8
313.15 K, 13000 kPa, x2 = 0.7482 | 698.5
313.15 K, 14000 kPa, x2 = 0.05 | 734.5
313.15 K, 14000 kPa, x2 = 0.7482 | 699.3
313.15 K, 15000 kPa, x2 = 0.05 | 735.2
313.15 K, 15000 kPa, x2 = 0.7482 | 700.1
313.15 K, 16000 kPa, x2 = 0.05 | 735.9
313.15 K, 16000 kPa, x2 = 0.7482 | 700.9
313.15 K, 17000 kPa, x2 = 0.05 | 736.6
313.15 K, 17000 kPa, x2 = 0.7482 | 701.7
313.15 K, 18000 kPa, x2 = 0.05 | 737.3
313.15 K, 18000 kPa, x2 = 0.7482 | 702.5
313.15 K, 19000 kPa, x2 = 0.05 | 738
313.15 K, 19000 kPa, x2 = 0.7482 | 703.3
313.15 K, 20000 kPa, x2 = 0.05 | 738.7
313.15 K, 20000 kPa, x2 = 0.7482 | 704
313.15 K, 21000 kPa, x2 = 0.05 | 739.3
313.15 K, 21000 kPa, x2 = 0.7482 | 704.8
313.15 K, 22000 kPa, x2 = 0.7482 | 705.5
313.15 K, 22001 kPa, x2 = 0.05 | 740
